Measured values published in PubChem BioAssay AID256 (DTP/NCI, 2004).
“And” between values parts separate entries of the source, which are not always exact repeats. Identical values can stand only once. Inconclusive results and toxic doses are left out. Rule for the calls: active = survival T/C of 150% or more; inactive = T/C below 125% in these data.

Tested on: CD2F1 mice, L1210 leukemia ip, survival T/C
Experiment: NCI In Vivo Anticancer Drug Screen. Data for tumor model L1210 Leukemia (intraperitoneal) in CD2F1 (CDF1) mice
Conditions: higher = longer survival
Method in brief: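 Implant tumor; dose compound or vehicle; measure endpoint in both groups; report treated divided by control.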

[1] = endpoint: mean survival time, dose: 100.0 mg/kg/injection, schedule: Q01DX009 (ip), vehicle: saline with Tween-80
[2] = endpoint: mean survival time, dose: 200.0 mg/kg/injection, schedule: Q01DX009 (ip), vehicle: saline with Tween-80
[3] = endpoint: mean survival time, dose: 400.0 mg/kg/injection, schedule: Q01DX009 (ip), vehicle: saline with Tween-80
[4] = endpoint: mean survival time, dose: 25.0 mg/kg/injection, schedule: Q01DX009 (ip), vehicle: other
[5] = endpoint: mean survival time, dose: 50.0 mg/kg/injection, schedule: Q01DX009 (ip), vehicle: other
[6] = endpoint: mean survival time, dose: 100.0 mg/kg/injection, schedule: Q01DX009 (ip), vehicle: other
[7] = endpoint: mean survival time, dose: 100.0 mg/kg/injection, schedule: Q01DX001 (ip), vehicle: saline with Tween-80
[8] = endpoint: mean survival time, dose: 200.0 mg/kg/injection, schedule: Q01DX001 (ip), vehicle: saline with Tween-80
[9] = endpoint: mean survival time, dose: 400.0 mg/kg/injection, schedule: Q01DX001 (ip), vehicle: saline with Tween-80
[10] = endpoint: mean survival time, dose: 100.0 mg/kg/injection, schedule: Q04DX003 (ip), vehicle: saline
[11] = endpoint: mean survival time, dose: 200.0 mg/kg/injection, schedule: Q04DX003 (ip), vehicle: saline
[12] = endpoint: mean survival time, dose: 400.0 mg/kg/injection, schedule: Q04DX003 (ip), vehicle: saline
[13] = endpoint: mean survival time, dose: 75.0 mg/kg/injection, schedule: Q01DX001 (ip), vehicle: other
[14] = endpoint: mean survival time, dose: 100.0 mg/kg/injection, schedule: Q04DX003 (ip), vehicle: saline with Tween-80
[15] = endpoint: mean survival time, dose: 200.0 mg/kg/injection, schedule: Q04DX003 (ip), vehicle: saline with Tween-80
[16] = endpoint: mean survival time, dose: 400.0 mg/kg/injection, schedule: Q04DX003 (ip), vehicle: saline with Tween-80
[17] = endpoint: mean survival time, dose: 100.0 mg/kg/injection, schedule: Q01DX009 (ip), vehicle: saline
[18] = endpoint: mean survival time, dose: 200.0 mg/kg/injection, schedule: Q01DX009 (ip), vehicle: saline

Measured: T/C

O=[N+]([O-])c1ccc(OCc2ccccc2)cc1
inactive: [1] 98 % of control | [2] 98 % of control | [3] 98 % of control

Nc1ccc(Cl)cc1N
inactive: [4] 96 % of control | [5] 102 % of control | endpoint: mean survival time, dose: 75.0 mg/kg/injection, schedule: Q01DX009 (ip), vehicle: other 107 % of control | [6] 106 % of control | endpoint: mean survival time, dose: 150.0 mg/kg/injection, schedule: Q01DX009 (ip), vehicle: other 112 % of control

CCOP(=O)(OCC)C(C(C)C)N(C)C (centres undefined)
inactive: [7] 103 % of control | [8] 101 % of control | [9] 98 % of control

CC1(C)OC1(C)C
inactive: [10] 97 % of control | [11] 104 % of control | [12] 97 % of control

Cc1ccc(S(=O)(=O)Nc2ccccc2SSc2ccccc2NS(=O)(=O)c2ccc(C)cc2)cc1
inactive: endpoint: mean survival time, dose: 100.0 mg/kg/injection, schedule: Q01DX001 (ip), vehicle: Klucel (hydroxypropylcellulose) (HPC) 96 % of control | endpoint: mean survival time, dose: 200.0 mg/kg/injection, schedule: Q01DX001 (ip), vehicle: Klucel (hydroxypropylcellulose) (HPC) 96 % of control | endpoint: mean survival time, dose: 400.0 mg/kg/injection, schedule: Q01DX001 (ip), vehicle: Klucel (hydroxypropylcellulose) (HPC) 90 % of control

CC1CN(CCC#N)C(=O)S1(=O)=O (centres undefined)
inactive: [13] 108 % of control

CCCCNC(=O)CC(C)C(=O)O (centres undefined)
inactive: [14] 102 % of control | [15] 98 % of control | [16] 102 % of control

CCOC(=O)CCN1CCCC2(C1)OCCO2
inactive: endpoint: mean survival time, dose: 12.5 mg/kg/injection, schedule: Q04DX002 (ip), vehicle: saline 109 % of control | endpoint: mean survival time, dose: 25.0 mg/kg/injection, schedule: Q04DX002 (ip), vehicle: saline 95 % of control | endpoint: mean survival time, dose: 50.0 mg/kg/injection, schedule: Q04DX002 (ip), vehicle: saline 98 % of control

COc1cc(C(=O)CC2CCCCN2)ccc1O (centres undefined)
inactive: endpoint: mean survival time, dose: 50.0 mg/kg/injection, schedule: Q01DX Z (ip), vehicle: saline 98 % of control | endpoint: mean survival time, dose: 100.0 mg/kg/injection, schedule: Q01DX Z (ip), vehicle: saline 96 % of control | endpoint: mean survival time, dose: 200.0 mg/kg/injection, schedule: Q01DX Z (ip), vehicle: saline 100 % of control

Cc1ccccc1NC(=O)C1CCC(C)(C(=O)O)C1(C)C (centres undefined)
inactive: [14] 98 % of control | [15] 93 % of control | [16] 96 % of control

Cc1cc(=NO)cc(C)n1O
inactive: endpoint: median survival time, dose: 25.0 mg/kg/injection, schedule: Q01DX009 (ip), vehicle: distilled water + alcohol 108 % of control | endpoint: median survival time, dose: 50.0 mg/kg/injection, schedule: Q01DX009 (ip), vehicle: distilled water + alcohol 104 % of control | endpoint: median survival time, dose: 100.0 mg/kg/injection, schedule: Q01DX009 (ip), vehicle: distilled water + alcohol 112 % of control | endpoint: median survival time, dose: 200.0 mg/kg/injection, schedule: Q01DX009 (ip), vehicle: distilled water + alcohol 108 % of control | endpoint: median survival time, dose: 400.0 mg/kg/injection, schedule: Q01DX009 (ip), vehicle: distilled water + alcohol 97 % of control

CNC(=O)Oc1ccc2c(c1)OCO2
inactive: endpoint: mean survival time, dose: 50.0 mg/kg/injection, schedule: Q01DX009 (ip), vehicle: saline 96 % of control | [17] 112 % of control | [18] 100 % of control

C=CC1(C)CCN=C(CCC(C(=O)OCC)C(=O)OCC)O1 (centres undefined)
inactive: endpoint: mean survival time, dose: 100.0 mg/kg/injection, schedule: Q01DX001 (ip), vehicle: saline sonified 103 % of control | endpoint: mean survival time, dose: 200.0 mg/kg/injection, schedule: Q01DX001 (ip), vehicle: saline sonified 97 % of control | endpoint: mean survival time, dose: 400.0 mg/kg/injection, schedule: Q01DX001 (ip), vehicle: saline sonified 100 % of control

O=C(NC(=S)Nc1cc(Cl)ccc1O)c1cccc(Br)c1
inactive: [7] 86 % of control and 89 % of control | [1] 96 % of control and 101 % of control | endpoint: mean survival time, dose: 100.0 mg/kg/injection, schedule: Q04DX002 (ip), vehicle: saline with Tween-80 89 % of control and 103 % of control | [14] 91 % of control | [8] 86 % of control | [2] 97 % of control and 98 % of control | endpoint: mean survival time, dose: 200.0 mg/kg/injection, schedule: Q04DX002 (ip), vehicle: saline with Tween-80 89 % of control and 100 % of control | [15] 96 % of control | [9] 86 % of control | [3] 116 % of control and 101 % of control | endpoint: mean survival time, dose: 400.0 mg/kg/injection, schedule: Q04DX002 (ip), vehicle: saline with Tween-80 94 % of control and 95 % of control | [16] 95 % of control

O=C1CC(c2ccccc2)=NO1
inactive: [7] 106 % of control | [8] 101 % of control | [9] 101 % of control

CCCCCCCCCC(=O)CCCCCCC
inactive: endpoint: mean survival time, dose: 100.0 mg/kg/injection, schedule: Q04DX003 (ip), vehicle: other 105 % of control | endpoint: mean survival time, dose: 200.0 mg/kg/injection, schedule: Q04DX003 (ip), vehicle: other 92 % of control | endpoint: mean survival time, dose: 400.0 mg/kg/injection, schedule: Q04DX003 (ip), vehicle: other 107 % of control

C[n+]1cccc(C(=O)c2ccccc2)c1
inactive: [13] 100 % of control

N#CCCN1CCOCC1
inactive: [17] 95 % of control | [10] 92 % of control | [18] 93 % of control | [11] 103 % of control | endpoint: mean survival time, dose: 400.0 mg/kg/injection, schedule: Q01DX009 (ip), vehicle: saline 101 % of control | [12] 103 % of control

O=c1n(-c2ccccc2)c(=O)n2n1CC(c1ccccc1)=N2
inactive: endpoint: mean survival time, dose: 12.5 mg/kg/injection, schedule: Q01DX009 (ip), vehicle: other 97 % of control | [4] 100 % of control | [5] 97 % of control | [6] 103 % of control | endpoint: mean survival time, dose: 200.0 mg/kg/injection, schedule: Q01DX009 (ip), vehicle: other 96 % of control

OC(CF)CF
inactive: endpoint: mean survival time, dose: 12.5 mg/kg/injection, schedule: Q01DX009 (ip), vehicle: saline 106 % of control | endpoint: mean survival time, dose: 25.0 mg/kg/injection, schedule: Q01DX009 (ip), vehicle: saline 118 % of control

CC(C(=O)c1ccccc1)N(C)Cc1ccccc1 (centres undefined)
inactive: endpoint: mean survival time, dose: 50.0 mg/kg/injection, schedule: Q04DX003 (ip), vehicle: saline 98 % of control | [10] 96 % of control | [11] 93 % of control

NC(=O)c1ncn(C2OC(CO)C(O)C2O)c1C(N)=O (centres undefined)
inactive: endpoint: mean survival time, dose: 12.5 mg/kg/injection, schedule: Q01DX005 (ip), vehicle: water 102 % of control | endpoint: mean survival time, dose: 25.0 mg/kg/injection, schedule: Q01DX005 (ip), vehicle: water 112 % of control | endpoint: mean survival time, dose: 50.0 mg/kg/injection, schedule: Q01DX005 (ip), vehicle: water 107 % of control | endpoint: mean survival time, dose: 100.0 mg/kg/injection, schedule: Q01DX005 (ip), vehicle: water 104 % of control | endpoint: mean survival time, dose: 200.0 mg/kg/injection, schedule: Q01DX005 (ip), vehicle: water 112 % of control

O=C(C[n+]1ccccc1)CC(O)(C(F)(F)F)C(F)(F)F
inactive: [1] 105 % of control | [2] 103 % of control

O=C(O)CC(=O)O.[NH-]CC(O)CN(Cc1ccccc1)CC(O)CN.[Pt+2] (centres undefined)
inactive: endpoint: median survival time, dose: 2.5 mg/kg/injection, schedule: Q04DX003 (ip), vehicle: water 102 % of control | endpoint: median survival time, dose: 5.0 mg/kg/injection, schedule: Q04DX003 (ip), vehicle: water 101 % of control | endpoint: median survival time, dose: 10.0 mg/kg/injection, schedule: Q04DX003 (ip), vehicle: water 108 % of control | endpoint: median survival time, dose: 12.5 mg/kg/injection, schedule: Q04DX003 (ip), vehicle: water 104 % of control | endpoint: median survival time, dose: 20.0 mg/kg/injection, schedule: Q04DX003 (ip), vehicle: water 111 % of control | endpoint: median survival time, dose: 25.0 mg/kg/injection, schedule: Q04DX003 (ip), vehicle: water 102 % of control | endpoint: median survival time, dose: 50.0 mg/kg/injection, schedule: Q04DX003 (ip), vehicle: water 104 % of control | endpoint: median survival time, dose: 100.0 mg/kg/injection, schedule: Q04DX003 (ip), vehicle: water 108 % of control

CCOC(=O)C(=O)CC(=O)c1ccc(OC)cc1
inactive: [1] 98 % of control | [14] 100 % of control | [2] 96 % of control | [15] 95 % of control | [3] 101 % of control | [16] 95 % of control

Cc1ccc(C)c(C(=O)O)c1N
inactive: [14] 95 % of control | [15] 95 % of control | [16] 100 % of control

CC[CH2][Sn]([CH2]CC)([CH2]CC)[O][Sn]([CH2]CC)([CH2]CC)[CH2]CC
inactive: endpoint: mean survival time, dose: 125.0 micrograms/kg/injection, schedule: Q01DX009 (ip), vehicle: saline 95 % of control | endpoint: mean survival time, dose: 250.0 micrograms/kg/injection, schedule: Q01DX009 (ip), vehicle: saline 95 % of control | endpoint: mean survival time, dose: 500.0 micrograms/kg/injection, schedule: Q01DX009 (ip), vehicle: saline 106 % of control | endpoint: mean survival time, dose: 1000.0 micrograms/kg/injection, schedule: Q01DX009 (ip), vehicle: saline 93 % of control
